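Five concentrations, 48 hours, 96-well plates. The concentration for 50% growth inhibition is given as GI50.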 Active and inactive are the calls of the source. Cut-off read from the data, not from the text of the source: active = GI50 up to about 1.1 µM and inactive = higher.
Key:
Experiment in all cases: NCI anticancer screen, dose series, 48 h
SF-539 = system: SF-539
MDA-MB-435 = system: MDA-MB-435
SF-295 = system: SF-295
NCI-H23 = system: NCI-H23
SN12C = system: SN12C
OVCAR-8 = system: OVCAR-8
HOP-62 = system: HOP-62
COLO 205 = system: COLO 205
HOP-92 = system: HOP-92
SF-268 = system: SF-268
BT-549 = system: BT-549
IGROV-1 = system: IGROV-1
HL-60 = system: HL-60
SW-620 = system: SW-620
SR = system: SR
KM12 = system: KM12
ACHN = system: ACHN
DU-145 = system: DU-145
Malme-3M = system: Malme-3M
SK-MEL-28 = system: SK-MEL-28
A498 = system: A498
SNB-19 = system: SNB-19
CCRF-CEM = system: CCRF-CEM
SK-OV-3 = system: SK-OV-3
LOX IMVI = system: LOX IMVI
786-0 = system: 786-0
OVCAR-3 = system: OVCAR-3
HCT-15 = system: HCT-15
HT-29 = system: HT-29
OVCAR-4 = system: OVCAR-4
EKVX = system: EKVX
MDA-MB-231 = system: MDA-MB-231
MOLT-4 = system: MOLT-4
T47D = system: T47D
PC-3 = system: PC-3
SNB-75 = system: SNB-75
Hs-578T = system: Hs-578T
RPMI-8226 = system: RPMI-8226
A549 = system: A549
UACC-257 = system: UACC-257
K562 = system: K562
NCI-H522 = system: NCI-H522
UO-31 = system: UO-31
NCI-H226 = system: NCI-H226
TK-10 = system: TK-10
CAKI-1 = system: CAKI-1
U-251 = system: U-251
MDA-N = system: MDA-N
M14 = system: M14
NCI-H460 = system: NCI-H460
HCC 2998 = system: HCC 2998
UACC-62 = system: UACC-62
SK-MEL-2 = system: SK-MEL-2
NCI/ADR-RES = system: NCI/ADR-RES
MCF7 = system: MCF7
OVCAR-5 = system: OVCAR-5
SK-MEL-5 = system: SK-MEL-5
RXF 393 = system: RXF 393
HCT-116 = system: HCT-116

SMILES: COc1cc2c(c3c1c(=O)c1ccccc1n3C)C=CC1(CCCCC1)O2
- GI50 (SF-539): 1.57 µM (inactive)
- GI50 (MDA-MB-435): 2.38 µM (inactive)
- GI50 (SF-295): 1.44 µM (inactive)
- GI50 (NCI-H23): > 7.67 µM (inactive)
- GI50 (SN12C): 6.28 µM (inactive)
- GI50 (OVCAR-8): 4.81 µM (inactive)
- GI50 (HOP-62): 2.3 µM (inactive)
- GI50 (COLO 205): 4.34 µM (inactive)
- GI50 (HOP-92): 3.24 µM (inactive)
- GI50 (SF-268): 4.48 µM (inactive)
- GI50 (BT-549): 4.84 µM (inactive)
- GI50 (IGROV-1): 2.15 µM (inactive)
- GI50 (HL-60): 3.88 µM (inactive)
- GI50 (SW-620): 6.92 µM (inactive)
- GI50 (SR): 1.95 µM (inactive)
- GI50 (KM12): 603 nM (active)
- GI50 (ACHN): 3.13 µM (inactive)
- GI50 (DU-145): > 9.1 µM (inactive)
- GI50 (Malme-3M): 3.43 µM (inactive)
- GI50 (SK-MEL-28): 4.8 µM (inactive)
- GI50 (A498): 5.96 µM (inactive)
- GI50 (SNB-19): > 7.18 µM (inactive)
- GI50 (CCRF-CEM): 2.55 µM (inactive)
- GI50 (SK-OV-3): 5.53 µM (inactive)
- GI50 (LOX IMVI): 3.75 µM (inactive)
- GI50 (786-0): 1.04 µM (active)
- GI50 (OVCAR-3): 3.53 µM (inactive)
- GI50 (HCT-15): 3.08 µM
- GI50 (HT-29): 2.61 µM (inactive)
- GI50 (OVCAR-4): 4.65 µM (inactive)
- GI50 (EKVX): > 7.94 µM (inactive)
- GI50 (MDA-MB-231): 4.83 µM (inactive)
- GI50 (MOLT-4): 3.11 µM (inactive)
- GI50 (T47D): 4.41 µM (inactive)
- GI50 (PC-3): 3.78 µM (inactive)
- GI50 (SNB-75): 1.29 µM (inactive)
- GI50 (Hs-578T): 2.54 µM (inactive)
- GI50 (RPMI-8226): 455 nM (active)
- GI50 (A549): 446 nM (active)
- GI50 (UACC-257): > 7.73 µM (inactive)
- GI50 (K562): 1.56 µM (inactive)
- GI50 (NCI-H522): 3.96 µM (inactive)
- GI50 (UO-31): 100 nM (active)
- GI50 (NCI-H226): 8.07 µM (inactive)
- GI50 (TK-10): > 8.95 µM (inactive)
- GI50 (CAKI-1): 764 nM (active)
- GI50 (U-251): 4.03 µM (inactive)
- GI50 (MDA-N): 2.96 µM (inactive)
- GI50 (M14): 2.68 µM (inactive)
- GI50 (NCI-H460): 3.82 µM (inactive)
- GI50 (HCC 2998): 4.59 µM (inactive)
- GI50 (UACC-62): 4.14 µM (inactive)
- GI50 (SK-MEL-2): 3.35 µM (inactive)
- GI50 (NCI/ADR-RES): 3.65 µM (inactive)
- GI50 (MCF7): 2.31 µM (inactive)
- GI50 (OVCAR-5): 5.73 µM (inactive)
- GI50 (SK-MEL-5): 2.15 µM (inactive)
- GI50 (RXF 393): 822 nM (active)
- GI50 (HCT-116): 2.88 µM (inactive)

Reference: ChEMBL document CHEMBL1201862, “PubChem BioAssay data set” (2004)
